Assay in all cases: growth of human tumour cells (NCI), 48 h
Test [1] concerns BT-549 breast.
In test [2] the test system is HOP-62 NSCLC.
The subject of test [3] is UO-31 renal.
In test [4] the test system is MDA-N.
In test [5] the test system is UACC-257 melanoma.
The subject of test [6] is NCI-H23 lung.
For test [7], the system named is OVCAR-8 ovarian.
In test [8] the test system is UACC-62 melanoma.
Test [9] deals with OVCAR-4 ovarian.
Test [10] has as its system EKVX NSCLC.
For test [11], the system named is CAKI-1 renal.
Test [12] relates to COLO 205 colon.

Where “and” joins values, the source holds several entries; their conditions need not be identical. Identical values can stand only once.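 In this assay, cells in 96-well plates receive the compound at five concentrations for 48 hours. Endpoints are linearly interpolated between the surrounding concentrations. GI50 is the concentration that inhibits growth by half. Definition used: TGI = concentration required for complete inhibition of growth.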

In the case of `O=C1O[C@H]2[C@H](OC(=O)c3cc(O)c(O)c(O)c3)[C@@H](OC(=O)c3cc(O)c(O)c4c3[C@@H]3C1=CC(=O)C(O)(O)C3(O)O4)[C@H](OC(=O)c1cc(O)c(O)c(O)c1)O[C@@H]2COC(=O)c1cc(O)c(O)c(O)c1` (stereo not given in full), the TGI in [1], in test [2], in test [3], in [4], in test [5] and in test [6] was > 100 µM throughout. The TGI in test [7], in test [8], in [9], in test [10], in test [11] and in test [12] was > 100 µM each time.
Consider `CN(CCCNC(=O)c1cn(C)c2c1Cc1ccccc1-2)CCCNC(=O)c1cn(C)c2c1Cc1ccccc1-2`, for which the TGI turned out to be 39.2 µM in test [1]; 29.2 µM in test [2]; 21.8 µM in test [3]; 12.3 µM in test [4]; 18.9 µM in [5]; 29.5 µM in test [6]. For the same compound, the TGI in test [7] is 29.8 µM; in test [8], 27.6 µM; in test [9], 26.8 µM; in test [10], 22.6 µM; in test [11], 28.4 µM; in [12], 4.05 µM.
Regarding `Cc1ccc2nc(C(C)C)c(=O)[nH]c2c1`, the TGI in [1] is > 100 µM; in test [2], 30.9 µM; in test [3], > 100 µM; in test [4], > 100 µM; in test [5], > 100 µM; in [6], > 100 µM. The TGI in [7], in test [8], in test [9], in test [10], in test [11] and in [12] was > 100 µM in each case.
On to `CCCCc1ccc(Nc2nc(OC)c3ncn(C4CC(O)C(CO)O4)c3n2)cc1` (stereo not given), for which the TGI in test [1] was found to be 38.1 µM; in test [2], 94.7 µM; in test [3], 35.7 µM; in test [4] it was 30 µM; in test [5] it was 34.6 µM; in test [6], 35.3 µM. Besides, the TGI in test [7] is 35.2 µM; in [8] it was 33.8 µM; in test [9], 35.9 µM; in [10] it was 6.08 µM; in [11], 3.49 µM; in test [12], 28.4 µM.
As for `COc1ccc(COC(=O)NCC(=O)NC(C)C(=O)NC(Cc2ccccc2)C(=O)OCc2ccccc2)cc1` (stereo not given), the GI50 in test [1] was 22.1 µM and > 100 µM; in test [3] it was 23.2 µM and 69.6 µM; in test [5], 15.7 µM and > 100 µM; in test [8] it was 18.8 µM and > 100 µM; in [10] it was 23.4 µM and 48.7 µM. Besides, the TGI in test [1] was 48.1 µM and > 100 µM; in test [2], 54.2 µM and 49.4 µM; in test [3] it was 44.9 µM and > 100 µM; in test [4], > 100 µM and 62.8 µM; in test [5] it was 29.8 µM and > 100 µM; in [6], > 100 µM. Moreover, the TGI in test [7] was > 100 µM; in test [8], 40.2 µM and > 100 µM; in test [9] it was 41.2 µM and 95.1 µM; in test [10], 56.6 µM and > 100 µM; in test [11] it was 41.5 µM and 65.7 µM; in test [12], 80.8 µM and 52.9 µM.
Regarding `CC(C)=CCCC(C)CCOS(=O)C(F)(F)F` (stereo not given), the TGI in [1] was 77.8 µM; in test [2], > 100 µM; in test [3] it was 35.2 µM; in [4] it was 14 µM; in test [5] it was 52.9 µM; in test [6], 14 µM. The TGI in [7] was > 100 µM; in [8], 21.7 µM; in test [9], 20.5 µM; in test [10] it was 30.2 µM; in [11] it was > 100 µM; in [12], 20.2 µM.
Regarding `Cc1cccc2sc(-c3ccc(O)cc3)nc12`, the TGI was 25.2 µM in test [1]; 26.4 µM in test [3]; 19.4 µM in [4]; 33.1 µM in test [5]; 31.9 µM in [6]; 31.8 µM in test [7]. Moreover, the TGI in [8] was 30.1 µM; in test [9], 29.5 µM; in test [10], 16.8 µM; in test [11], 30.5 µM; in [12], 28.1 µM.
On to `CCCCCc1c(CCCC)c(=O)[nH]c2nc(NC(=O)CCCC)ccc12`, for which the TGI in [1], in test [2], in test [3], in [4], in test [5] and in test [6] was > 100 µM each time. Besides, the TGI in [7], in test [9], in test [10], in test [11] and in [12] was > 100 µM in each case.
On to `N[C@@H]1CCN(c2c(F)cc3c(=O)c(C(=O)O)cn4c3c2Oc2cc3c(ccc5ccccc53)cc2-4)C1`, for which the TGI in test [1] was > 100 µM; in [2], > 100 µM; in [3] it was > 100 µM; in [4], > 100 µM; in test [6], > 100 µM; in test [7], 18.1 µM. Besides, the TGI in test [8] was 26.7 µM; in [9], > 100 µM; in test [11], > 77.5 µM; in test [12] it was > 100 µM.
For the compound `O=C1/C(=C/c2ccccc2[N+](=O)[O-])N=C(c2ccccc2)N1c1nc2ccccc2s1`, the TGI was 49.4 µM in test [1]; 72.2 µM in [2]; > 100 µM in test [3]; 71.9 µM in test [4]; > 100 µM in test [5]; 41.4 µM in test [6]. In addition, the TGI in test [7] is 39.7 µM; in [9], 51 µM; in test [10], > 100 µM; in [11], > 100 µM.
As for `O=C(NNC(=S)NC1CCCCC1)C12CC3CC(CC(C3)C1)C2`, the TGI in test [1], in test [2], in test [3], in test [4], in test [5] and in [6] was > 100 µM in each case. The TGI in test [7], in test [8], in [9], in test [11] and in test [12] was > 100 µM in each case.

These data come from PubChem BioAssay (NCI).
